Measured values taken from patent publication US10519152B2, “Compounds and their use in treating cancer” (AstraZeneca AB, priority 2017, dated 2019).
pIC50: −log10 of the molar value.

Molecular target: T1, recombinant human Estrogen Receptor alpha ligand binding domain, residues 307-554 (ER alpha-LBD (GST)) (Homo sapiens, UniProt P03372)
T1 construct: made in house
T1 sequence (P03372 307-554): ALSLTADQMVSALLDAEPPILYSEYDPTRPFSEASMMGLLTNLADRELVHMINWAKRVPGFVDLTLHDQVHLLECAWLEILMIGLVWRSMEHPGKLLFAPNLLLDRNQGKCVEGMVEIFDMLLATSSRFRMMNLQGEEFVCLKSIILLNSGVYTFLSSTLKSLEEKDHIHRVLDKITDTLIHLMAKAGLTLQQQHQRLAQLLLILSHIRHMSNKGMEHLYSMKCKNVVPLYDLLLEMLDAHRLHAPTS
Test: ERα binding assay (LanthaScreen TR-FRET competition)
Settings: TR-FRET competition with Fluormone ES2 tracer, 4 hours at room temperature; single experiment or average of two or more

`Cc1ncsc1-c1ccc(CNC(=O)[C@@H]2C[C@@H](O)CN2C(=O)[C@@H](NC(=O)CCCCOCCCCCOc2cc(F)c([C@@H]3c4[nH]c5ccccc5c4C[C@@H](C)N3CC(C)(C)F)c(F)c2)C(C)(C)C)cc1` [Example 113, (2S,4R)-1-((S)-2-(5-((5-(3,5-Difluoro-4-((1R,3R)-2-(2-fluoro-2-methylpropyl)-3-methyl-2,3,4,9-tetrahydro-1H-pyrido[3,4-b]indol-1-yl)phenoxy)pentyl)oxy)pentanamido)-3,3-dimethylbutanoyl)-4-hydroxy-N-(4-(4-methylthiazol-5-yl)benzyl)pyrrolidine-2-carboxamide] and `Cc1ncsc1-c1ccc(CNC(=O)[C@@H]2C[C@@H](O)CN2C(=O)[C@@H](NC(=O)CCOCCCCCCCOc2cc(F)c([C@@H]3c4[nH]c5ccccc5c4C[C@@H](C)N3CC(C)(C)F)c(F)c2)C(C)(C)C)cc1` [Example 115, (2S,4R)-1-((S)-2-(3-((7-(3,5-difluoro-4-((1R,3R)-2-(2-fluoro-2-methylpropyl)-3-methyl-2,3,4,9-tetrahydro-1H-pyrido[3,4-b]indol-1-yl)phenoxy)heptyl)oxy)propanamido)-3,3-dimethylbutanoyl)-4-hydroxy-N-(4-(4-methylthiazol-5-yl)benzyl)pyrrolidine-2-carboxamide] are within 0.2 log units of each other in pIC50: 9.22 for the first, 9.15 for the second.

`Cc1ncsc1-c1ccc(CNC(=O)[C@@H]2C[C@@H](O)CN2C(=O)[C@@H](NC(=O)CCCCCCCCCCOc2cc(F)c([C@@H]3c4[nH]c5ccccc5c4C[C@@H](C)N3CC(C)(C)F)c(F)c2)C(C)(C)C)cc1` [Example 32, (2S,4R)-1-((S)-2-(11-(3,5-Difluoro-4-((1R,3R)-2-(2-fluoro-2-methylpropyl)-3-methyl-2,3,4,9-tetrahydro-1H-pyrido[3,4-b]indol-1-yl)phenoxy)undecanamido)-3,3-dimethylbutanoyl)-4-hydroxy-N-(4-(4-methylthiazol-5-yl)benzyl)pyrrolidine-2-carboxamide] and `Cc1ncsc1-c1ccc(CNC(=O)[C@@H]2C[C@@H](O)CN2C(=O)[C@@H](NC(=O)CCCCCCCCCOc2cc(F)c([C@@H]3c4[nH]c5ccccc5c4C[C@@H](C)N3CC(C)(C)F)c(F)c2)C(C)(C)C)cc1` [Example 11, (2S,4R)-1-((S)-2-(10-(3,5-Difluoro-4-((1R,3R)-2-(2-fluoro-2-methylpropyl)-3-methyl-2,3,4,9-tetrahydro-1H-pyrido[3,4-b]indol-1-yl)phenoxy)decanamido)-3,3-dimethylbutanoyl)-4-hydroxy-N-(4-(4-methylthiazol-5-yl)benzyl)pyrrolidine-2-carboxamide] are within 0.2 log units of each other in pIC50: 8.64 for the first, 8.82 for the second.

Compared with `Cc1ncsc1-c1ccc(CNC(=O)[C@@H]2C[C@@H](O)CN2C(=O)[C@@H](NC(=O)COCCCCCCOc2ccc([C@@H]3c4[nH]c5ccccc5c4C[C@@H](C)N3CC(F)F)nc2)C(C)(C)C)cc1` [Example 8, (2S,4R)-1-((S)-2-(2-((6-((6-((1S,3R)-2-(2,2-Difluoroethyl)-3-methyl-2,3,4,9-tetrahydro-1H-pyrido[3,4-b]indol-1-yl)pyridin-3-yl)oxy)hexyl)oxy)acetamido)-3,3-dimethylbutanoyl)-4-hydroxy-N-(4-(4-methylthiazol-5-yl)benzyl)pyrrolidine-2-carboxamide], `Cc1ncsc1-c1ccc(CNC(=O)[C@@H]2C[C@@H](O)CN2C(=O)[C@@H](NC(=O)C(F)(F)OCCCOCCCOc2cc(F)c([C@@H]3c4[nH]c5ccccc5c4C[C@@H](C)N3CC(C)(C)F)c(F)c2)C(C)(C)C)cc1` [Example 119, (2S,4R)-1-((S)-2-(2-(3-(3-(3,5-Difluoro-4-((1R,3R)-2-(2-fluoro-2-methylpropyl)-3-methyl-2,3,4,9-tetrahydro-1H-pyrido[3,4-b]indol-1-yl)phenoxy)propoxy)propoxy)-2,2-difluoroacetamido)-3,3-dimethylbutanoyl)-4-hydroxy-N-(4-(4-methylthiazol-5-yl)benzyl)pyrrolidine-2-carboxamide] is 0.93 log units higher in pIC50: 8.17 for the first, 9.10 for the second.
